Experiment [1] addresses T1, human histamine H4 receptor (Homo sapiens, UniProt Q9H3N8).
T1 construct: purchased Euroscreen/Perkin-Elmer
Nature of the experiment: Competitive binding assay of [3H]-histamine to the human histamine H4 receptor. Particulars: 10 nM [3H]-histamine, CHO membrane extract; for inhibition at 1 µM: at a concentration of 1 μM. As to the method: Competitive Binding Assay of [^3H]-histamine to the Human Histamine H4 Receptor
To perform the binding assay, membrane extracts prepared from a stable CHO recombinant cell line expressing the human histamine H4 receptor (Euroscreen/Perkin-Elmer) were used.
The compounds to be tested were incubated at the desired concentration in duplicate with 10 nM [^3H]-histamine and 15 μg membrane extract in a total volume of 250 μL of 50 mM Tris-HCl, pH 7.4, 1.25 mM EDTA for 60 minutes at 25° C. Non-specific binding was defined in the presence of 100 μM of unlabelled histamine. The reaction was stopped by filtration using a vacuum collector (Multiscreen Millipore) in 96-well plates (MultiScreen HTS Millipore) that had been previously soaked in 0.5% polyethylenimine for 2 hours at 0° C. The plates were subsequently washed with 50 mM Tris (pH 7.4), 1.25 mM EDTA at 0° C., and the filters were dried for 1 hour at 50-60° C., before adding the scintillation liquid in order to determine bound radioactivity by means of a betaplate scintillation counter.

Another experiment concerns human eosinophils. Nature of the experiment: Histamine-induced shape change assay (Gated Autofluorescence Forward Scatter assay, GAFS) in human eosinophils. To be noted: Eosinophil, stimulated with 300 nM histamine. In kind it is cell-based. As to the method: Histamine-induced Shape Change Assay (Gated Autofluorescence Forward Scatter Assay, GAFS) in Human Eosinophils
In this assay the shape change induced by histamine in human eosinophils is determined by flow cytometry, detected as an increase in the size of the cells (forward scatter, FSC).
Polymorphonuclear leucocytes (PMNL, fraction containing neutrophils and eosinophils) were prepared from whole blood of human healthy volunteers. Briefly, erythrocytes were separated by sedimentation in 1.2% Dextran (SIGMA), and the leucocyte-rich fraction (PMNL) was isolated from the top layer by centrifugation at 450 g for 20 min in the presence of Ficoll-Paque® (Biochrom). PMNLs were resuspended in PBS buffer at a concentration of 1.1×10^6 cells/ml/tube and were pretreated with different concentrations of test compounds (dissolved in PBS) for 30 min at 37° C. and then stimulated with 300 nM histamine (Fluka) for 5 min. Finally, paraformaldehyde (1% final concentration in PBS) was added to terminate the reaction and maintain cell shape. Cell shape change was analyzed by flow cytometry (FACS Calibur, BD Biosystems). Eosinophils in PMNL were gated based on their higher autofluorescence relative to that of neutrophils (fluorescence channel FL2). Cell shape change was monitored in forward scatter signals (FSC). Results are expressed as percentage inhibition of shape change induced by histamine for each concentration of test compound.

As a reminder, the inhibition is how much of the control response was suppressed.

A value given as a limit tells only on which side of the number the result lay.

T1 sequence (Q9H3N8 whole entry): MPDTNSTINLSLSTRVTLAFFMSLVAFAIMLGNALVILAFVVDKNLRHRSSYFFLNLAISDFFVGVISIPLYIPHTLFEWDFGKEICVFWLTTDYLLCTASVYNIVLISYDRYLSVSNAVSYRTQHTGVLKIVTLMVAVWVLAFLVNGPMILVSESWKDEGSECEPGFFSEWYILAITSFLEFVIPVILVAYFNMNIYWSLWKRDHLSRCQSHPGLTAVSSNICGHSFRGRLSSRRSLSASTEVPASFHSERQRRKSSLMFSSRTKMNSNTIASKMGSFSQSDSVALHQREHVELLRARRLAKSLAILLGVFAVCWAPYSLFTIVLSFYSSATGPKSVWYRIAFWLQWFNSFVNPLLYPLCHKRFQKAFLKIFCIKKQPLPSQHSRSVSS

In the case of `CN[C@@H]1CCN(c2cc(N)nc(C(C)C)n2)C1` [Example 12, 2-Isopropyl-6-((3R)-3-(methylamino)pyrrolidin-1-yl)pyrimidin-4-amine], the inhibition at 1 µM (in experiment [1]; with human eosinophils) was over 50% throughout. In turn, `CN[C@@H]1CCN(c2cc(N)nc(CC(C)C)n2)C1` [Example 1, 2-Isobutyl-6-((3R)-3-(methylamino)pyrrolidin-1-yl)pyrimidin-4-amine] displayed an inhibition at 10 µM in experiment [1] of over 50%. For the same compound, in the experiment on human eosinophils, the inhibition at 1 µM was over 50%.

For `CNC1CN(c2cc(N)nc(Cc3ccc(F)cc3)n2)C1` [Example 3, 2-(4-Fluorobenzyl)-6-(3-(methylamino)azetidin-1-yl)pyrimidin-4-amine], the inhibition at 10 µM in experiment [1] is over 50%. In the experiment on human eosinophils, this compound had an inhibition at 1 µM of over 50%. In experiment [1], `CNC1CN(c2cc(N)nc(CC(C)C)n2)C1` [Example 4, 2-Isobutyl-6-(3-(methylamino)azetidin-1-yl)pyrimidin-4-amine] registered an inhibition at 10 µM of over 50%. In the experiment on human eosinophils, this compound came in with an inhibition at 1 µM of over 50%. Regarding `CN[C@@H]1CCN(c2cc(N)nc(CC(C)(C)C)n2)C1` [Example 22, 2-(2,2-Dimethylpropyl)-6-((3R)-3-(methylamino)pyrrolidin-1-yl)pyrimidin-4-amine], the inhibition at 10 µM in experiment [1] is over 50%. Besides, the inhibition at 1 µM in the experiment on human eosinophils is over 50%. `CN[C@@H]1CCN(c2cc(N)nc(CC3CCCCC3)n2)C1` [Example 2, 2-Cyclohexylmethyl-6-((3R)-3-(methylamino)pyrrolidin-1-yl)pyrimidin-4-amine]: the inhibition at 10 µM in experiment [1] was over 50%. For the same compound, the inhibition at 1 µM in the experiment with human eosinophils was over 50%. `CC(C)Cc1nc(N)cc(N2CC(N)C2)n1` [Example 14, 6-(3-Aminoazetidin-1-yl)-2-isobutylpyrimidin-4-amine]: the inhibition at 10 µM in experiment [1] is over 50%.

As for `CNC1CN(c2cc(N)nc(C(C)(C)C)n2)C1` [Example 6, 2-tert-Butyl-6-(3-(methylamino)azetidin-1-yl)pyrimidin-4-amine], the inhibition at 10 µM in experiment [1] was over 50%. In experiment [1], `CNC1CN(c2cc(N)nc(CC(C)(C)C)n2)C1` [Example 21, 2-(2,2-Dimethylpropyl)-6-(3-(methylamino)azetidin-1-yl)pyrimidin-4-amine] registered an inhibition at 10 µM of over 50%. In the experiment with human eosinophils, the inhibition at 1 µM is over 50%.

On to `CN[C@@H]1CCN(c2cc(N)nc(C3CCC3)n2)C1` [Example 18, 2-Cyclobutyl-6-((3R)-3-(methylamino)pyrrolidin-1-yl)pyrimidin-4-amine], for which the inhibition at 10 µM in experiment [1] was over 50%. Further, the inhibition at 1 µM with human eosinophils is over 50%. In experiment [1], `CN[C@@H]1CCN(c2cc(N)nc(CCC3CCCC3)n2)C1` [Example 23, 2-(2-Cyclopentylethyl)-6-((3R)-3-(methylamino)pyrrolidin-1-yl)pyrimidin-4-amine] yielded an inhibition at 10 µM of over 50%. In turn, `CNC1CN(c2cc(N)nc(COc3ccccc3)n2)C1` [Example 9, 6-(3-(methylamino)azetidin-1-yl)-2-(phenoxymethyl)pyrimidin-4-amine] yielded an inhibition at 10 µM in experiment [1] of over 50%. For the compound `CN[C@@H]1CCN(c2cc(N)nc(C3CC3)n2)C1` [Example 10, 2-Cyclopropyl-6-((3R)-3-(methylamino)pyrrolidin-1-yl)pyrimidin-4-amine], the inhibition at 1 µM in experiment [1] is over 50%.

`CC(C)Cc1nc(N)cc(N2CC[C@@H](N)C2)n1` [Example 16, 6-((3R)-3-aminopyrrolidin-1-yl)-2-isobutylpyrimidin-4-amine] returned an inhibition at 10 µM in experiment [1] of over 50%.

Consider `CNC1CN(c2cc(N)nc(C3CCCC3)n2)C1` [Example 19, 2-Cyclopentyl-6-(3-(methylamino)azetidin-1-yl)pyrimidin-4-amine], for which the inhibition at 10 µM in experiment [1] is over 50%. In addition, the inhibition at 1 µM with human eosinophils was over 50%. As for `CN[C@@H]1CCN(c2cc(N)nc(C(C)(C)C)n2)C1` [Example 11, 2-tert-Butyl-6-((3R)-3-(methylamino)pyrrolidin-1-yl)pyrimidin-4-amine], the inhibition at 1 µM (in experiment [1]; in the experiment on human eosinophils) was over 50% throughout.

With `CNC1CN(c2cc(N)nc(C3CC3)n2)C1` [Example 5, 2-Cyclopropyl-6-(3-(methylamino)azetidin-1-yl)pyrimidin-4-amine], the inhibition at 10 µM in experiment [1] was over 50%. In experiment [1], `CN[C@@H]1CCN(c2cc(N)nc(COc3ccccc3)n2)C1` [Example 13, 6-((3R)-3-(methylamino)pyrrolidin-1-yl)-2-(phenoxymethyl)pyrimidin-4-amine] registered an inhibition at 10 µM of over 50%. `CNC1CN(c2cc(N)nc(C3CCC3)n2)C1` [Example 17, 2-Cyclobutyl-6-(3-(methylamino)azetidin-1-yl)pyrimidin-4-amine]: the inhibition at 10 µM in experiment [1] was over 50%. This compound also registered an inhibition at 1 µM in the experiment on human eosinophils of over 50%. Regarding `CNC1CN(c2cc(N)nc(C(C)C)n2)C1` [Example 7, 2-Isopropyl-6-(3-(methylamino)azetidin-1-yl)pyrimidin-4-amine], the inhibition at 10 µM in experiment [1] was over 50%. `CNC1(C)CN(c2cc(N)nc(CC(C)C)n2)C1` [Example 15, 2-Isobutyl-6-(3-methyl-3-(methylamino)azetidin-1-yl)pyrimidin-4-amine]: the inhibition at 10 µM in experiment [1] was over 50%. The compound further had an inhibition at 1 µM with human eosinophils of over 50%.

As for `CN[C@@H]1CCN(c2cc(N)nc(C3CCCC3)n2)C1` [Example 20, 2-Cyclopentyl-6-((3R)-3-(methylamino)pyrrolidin-1-yl)pyrimidin-4-amine], the inhibition at 10 µM in experiment [1] was over 50%. Further, in the experiment on human eosinophils, the inhibition at 1 µM was over 50%.
